The structures appear in SMILES notation.

The target in the first assay is T1, Pin1 (Homo sapiens, UniProt Q13526).
T1 construct: purchased Anaspec
T1 sequence (Q13526 whole entry): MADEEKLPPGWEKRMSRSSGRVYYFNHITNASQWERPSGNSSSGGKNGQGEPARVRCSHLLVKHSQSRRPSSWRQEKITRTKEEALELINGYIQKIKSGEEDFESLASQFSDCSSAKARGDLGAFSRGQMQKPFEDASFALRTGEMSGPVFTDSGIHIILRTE
Kind of assay: Evaluation of Pin1 enzyme inhibitory activity (Sensolyte Green Pin1 assay kit). Particulars: Table 2; read-out: concentration at which Pin1 inhibitory activity was exhibited. The format is biochemical. The protocol:
In order to evaluate the Pin1 enzyme inhibitory activity of the compound represented by formula 1 according to the present invention, the following experiment was performed, and the results are shown in Table 2 below.
The enzyme activity of Pin1 protein was measured using a sensolyte Green Pin1 assay kit of Anaspec. The substrate was diluted in a buffer at a ratio of 1:100 to prepare a concentration of 1 μM, and the protein was diluted in a buffer at a ratio of 1:20 to prepare a concentration of 50 μg/ml. In addition, a developing solution was prepared by diluting thereof in a buffer at a ratio of 1:100.
The compound prepared in each example was diluted with DMSO and prepared at a concentration of 100 μM, 10 μM, 1 μM or 0.1 μM using a buffer. After sequentially adding 10 μl of the compound prepared in each Example diluted to four concentrations according to the above method, 10 μl of Pin1 protein, and 30 μl of the developing solution to each well of a black 96-well plate, […]. Finally, 50 μl of the substrate was added to each well of the plate, and the enzyme reaction was carried out after shaking the plate for 10 seconds.
Then, the plate was incubated for 2 hours at room temperature in an environment without light, and the fluorescence values at 490 nm/520 nm wavelength were measured using a device of Synergy Neo […]. The results are shown in Table 2 below by dividing the grades of A to D for each concentration (μM) at which the Pin1 enzyme activity is inhibited.
On to `O=S(=O)(NCCCc1c[nH]c2ccc(Cl)cc12)c1ccc(OCCCN2CCCCC2)cc1` [Example 87, N-(3-(5-chloro-1H-indol-3-yl)propyl)-4-(3-(piperidin-1-yl)propoxy)benzenesulfonamide], for which the IC50 was less than 1 µM.

Take `O=S(=O)(NCCCc1c[nH]c2ccc(Cl)cc12)c1ccc(OCCCN2CCCCCC2)cc1` [Example 101, 4-(3-(azepan-1-yl)propoxy)-N-(3-(5-chloro-1H-indol-3-yl)propyl)benzenesulfonamide]: the IC50 is less than 1 µM.

On to `O=S(=O)(NCCCc1c[nH]c2ccc(Cl)cc12)c1ccc(OCCCN2CCCNCC2)cc1` [Example 102, 4-(3-(1,4-diazepan-1-yl)propoxy)-N-(3-(5-chloro-1H-indol-3-yl)propyl)benzenesulfonamide], for which the IC50 was less than 1 µM.

Regarding `CC1CN(CCCOc2ccc(S(=O)(=O)NCCCc3c[nH]c4ccc(Cl)cc34)cc2)CCN1` (stereo not drawn) [Example 107, N-(3-(5-chloro-1H-indole-3-yl)propyl)-4-(3-(3-methylpiperazine-1-yl)propoxy)benzenesulfonamide], the IC50 is less than 1 µM.

Turning to `CN1CCN(CC2(COc3ccc(S(=O)(=O)NCCCc4c[nH]c5ccc(Cl)cc45)cc3)CC2)CC1` [Example 116, N-(3-(5-chloro-1H-indole-3-yl)propyl)-4-((1-((4-methylpiperazine-1-yl)methyl)cyclopropyl)methoxy)benzenesulfonamide], the IC50 was less than 1 µM.

The assay is the same for the next values; noted with them: concentration at which the Pin1 enzyme activity is inhibited; 2 hours at room temperature, fluorescence 490 nm/520 nm; read-out: Pin 1 inhibition.
As to `COc1ccc2[nH]cc(CCNS(=O)(=O)c3ccc(OCCCN4CCN(C)CC4)cc3)c2c1` [Example 49, N-(2-(5-methoxy-1H-indol-3-yl)ethyl)-4-(3-(4-methylpiperazin-1-yl)propoxy)benzenesulfonamide], the IC50 was 10 to 100 µM.

Regarding `CN1CCN(CCCOc2ccc(S(=O)(=O)NCCc3c[nH]c4ccccc34)cc2)CC1` [Example 50, N-(2-(1H-indol-3-yl)ethyl)-4-(3-(4-methylpiperazin-1-yl)propoxy)benzenesulfonamide], the IC50 is 10 to 100 µM.

For `CC(C)N1CCN(CCCOc2ccc(S(=O)(=O)NCCc3c[nH]c4ccccc34)cc2)CC1` [Example 51, N-(2-(1H-indol-3-yl)ethyl)-4-(3-(4-isopropylpiperazin-1-yl)propoxy)benzenesulfonamide], the IC50 was greater than 100 µM.

In the case of `CN1CCN(CCOc2ccc(S(=O)(=O)NCCCc3c[nH]c4ccccc34)cc2)CC1` [Example 52, N-(3-(1H-indol-3-yl)propyl)-4-(2-(4-methylpiperazin-1-yl)ethoxy)benzenesulfonamide], the IC50 lay within 10 to 100 µM.

Consider `CC(C)N1CCN(CCOc2ccc(S(=O)(=O)NCCCc3c[nH]c4ccccc34)cc2)CC1` [Example 53, N-(3-(1H-indol-3-yl)propyl)-4-(2-(4-isopropylpiperazin-1-yl)ethoxy)benzenesulfonamide], for which the IC50 lay within 10 to 100 µM.

`Cc1[nH]c2ccccc2c1CCNS(=O)(=O)c1ccc(OCCCN2CCN(C)CC2)cc1` [Example 54, N-(2-(2-methyl-1H-indol-3-yl)ethyl)-4-(3-(4-methylpiperazin-1-yl)propoxy)benzenesulfonamide]: the IC50 was in the range of 10 to 100 µM.

For the compound `CN1CCN(CCCOc2ccc(S(=O)(=O)NCCCc3c[nH]c4ccccc34)cc2F)CC1` [Example 62, N-(3-(1H-indol-3-yl)propyl)-3-fluoro-4-(3-(4-methylpiperazin-1-yl)propoxy)benzenesulfonamide], the IC50 was in the range of 1 to 10 µM.

In the case of `CCN1CCN(CCCOc2ccc(S(=O)(=O)NCCCc3c[nH]c4ccc(F)cc34)cc2)CC1` [Example 63, 4-(3-(4-ethylpiperazin-1-yl)propoxy)-N-(3-(5-fluoro-1H-indol-3-yl)propyl)benzenesulfonamide], the IC50 was in the range of 1 to 10 µM.

As to `COc1ccc2[nH]cc(C3CCN(S(=O)(=O)c4ccc(OCCCN5CCN(C)CC5)cc4)CC3)c2c1` [Example 64, 5-methoxy-3-(1-((4-(3-(4-methylpiperazin-1-yl)propoxy)phenyl)sulfonyl)piperidin-4-yl)-1H-indole], the IC50 was 10 to 100 µM.

Turning to `Cc1ccc2[nH]cc(C3CCN(S(=O)(=O)c4ccc(OCCCN5CCN(C)CC5)cc4)CC3)c2c1` [Example 65, 5-methyl-3-(1-((4-(3-(4-methylpiperazin-1-yl)propoxy)phenyl)sulfonyl)piperidin-4-yl)-1H-indole], the IC50 lay within 10 to 100 µM.

For `Cc1ccc2[nH]cc(CCCNS(=O)(=O)c3ccc(OCCCN4CCN(C)CC4)cc3)c2c1` [Example 67, N-(3-(5-methyl-1H-indol-3-yl)propyl)-4-(3-(4-methylpiperazin-1-yl)propoxy)benzenesulfonamide], the IC50 lay within 1 to 10 µM.

With `COc1ccc2[nH]cc(CCCNS(=O)(=O)c3ccc(OCCCN4CCN(C)CC4)cc3)c2c1` [Example 68, N-(3-(5-methoxy-1H-indol-3-yl)propyl)-4-(3-(4-methylpiperazin-1-yl)propoxy)benzenesulfonamide], the IC50 is 1 to 10 µM.

As for `O=S(=O)(NCCCc1c[nH]c2ccccc12)c1ccc(OCCCN2CCC(O)CC2)cc1` [Example 69, N-(3-(1H-indol-3-yl)propyl)-4-(3-(4-hydroxypiperidin-1-yl)propoxy)benzenesulfonamide], the IC50 lay within 1 to 10 µM.

Regarding `CN1CCN(CCCOc2ccc(S(=O)(=O)N3CCC(c4c[nH]c5ccc(F)cc45)CC3)cc2)CC1` [Example 71, 5-fluoro-3-(1-((4-(3-(4-methylpiperazin-1-yl)propoxy)phenyl)sulfonyl)piperidin-4-yl)-1H-indole], the IC50 lay in the range of 10 to 100 µM.

For the compound `C[C@@H]1CN(CCCOc2ccc(S(=O)(=O)NCCCc3c[nH]c4ccc(F)cc34)cc2)C[C@H](C)N1` [Example 72, 4-(3-((3S,5R)-3,5-dimethylpiperazine-1-yl)propoxy)-N-(3-(5-fluoro-1H-indole-3-yl)propyl)benzenesulfonamide], the IC50 lay within 10 to 100 µM.

Take `CC(C)C(=O)N1CCN(CCCOc2ccc(S(=O)(=O)NCCCc3c[nH]c4ccc(F)cc34)cc2)CC1` [Example 73, N-(3-(5-fluoro-1H-indol-3-yl)propyl)-4-(3-(4-isobutyrylpiperazin-1-yl)propoxy)benzenesulfonamide]: the IC50 is 10 to 100 µM.

For `O=S(=O)(NCCCc1c[nH]c2ccc(F)cc12)c1ccc(OCCCN2CCN(CC(F)(F)F)CC2)cc1` [Example 74, N-(3-(5-fluoro-1H-indol-3-yl)propyl)-4-(3-(4-(2,2,2-trifluoroethyl)piperazin-1-yl)propoxy)benzenesulfonamide], the IC50 fell in the range of 1 to 10 µM.

On to `O=S(=O)(NCCCc1c[nH]c2ccc(Cl)cc12)c1ccc(OCCCN2CCN(CC(F)(F)F)CC2)cc1` [Example 76, N-(3-(5-chloro-1H-indol-3-yl)propyl)-4-(3-(4-(2,2,2-trifluoroethyl)piperazin-1-yl)propoxy)benzenesulfonamide], for which the IC50 fell in the range of 1 to 10 µM.

`O=S(=O)(NCCCc1c[nH]c2ccc(F)cc12)c1ccc(OCCCN2CCCCC2)cc1` [Example 84, N-(3-(5-fluoro-1H-indol-3-yl)propyl)-4-(3-(piperidin-1-yl)propoxy)benzenesulfonamide]: the IC50 is 1 to 10 µM.

`CN1CCN(CCCOc2ccc(S(=O)(=O)NC3CCCC(c4c[nH]c5ccccc45)C3)cc2)CC1` (stereo not drawn) [Example 85, N-(3-(1H-indole-3-yl)cyclohexyl)-4-(3-(4-methylpiperazine-1-yl)propoxy)benzenesulfonamide]: the IC50 lay within 10 to 100 µM.

Take `O=S(=O)(NCCCc1c[nH]c2ccc(Cl)cc12)c1ccc(OCCCN2CCCCC2)cc1` [Example 87, N-(3-(5-chloro-1H-indol-3-yl)propyl)-4-(3-(piperidin-1-yl)propoxy)benzenesulfonamide]: the IC50 is less than 1 µM.

As for `CN1CCN(CCCOc2ccc(S(=O)(=O)Nc3cccc(-c4c[nH]c5ccccc45)c3)cc2)CC1` [Example 89, N-(3-(1H-indole-3-yl)phenyl)-4-(3-(4-methylpiperazine-1-yl)propoxy)benzenesulfonamide], the IC50 fell in the range of 10 to 100 µM.

`O=S(=O)(NCCCc1c[nH]c2ccc(Cl)cc12)c1cccc(OCCCC2CCNCC2)c1` [Example 94, N-(3-(5-chloro-1H-indol-3-yl)propyl)-3-(3-(piperidin-4-yl)propoxy)benzenesulfonamide]: the IC50 fell in the range of 1 to 10 µM.

Turning to `O=S(=O)(NCCCc1c[nH]c2ccc(Cl)cc12)c1cccc(OCCCN2CCNCC2)c1` [Example 96, N-(3-(5-chloro-1H-indol-3-yl)propyl)-3-(3-(piperazin-1-yl)propoxy)benzenesulfonamide], the IC50 fell in the range of 1 to 10 µM.

In the case of `O=S(=O)(NCCCc1c[nH]c2ccc(F)cc12)c1ccc(OCCCC2CCNCC2)cc1` [Example 97, N-(3-(5-fluoro-1H-indol-3-yl)propyl)-4-(3-(piperidin-4-yl)propoxy)benzenesulfonamide], the IC50 was 1 to 10 µM.

With `O=S(=O)(NCCCc1c[nH]c2ccc(Cl)cc12)c1ccc(OCCCN2CCCCCC2)cc1` [Example 101, 4-(3-(azepan-1-yl)propoxy)-N-(3-(5-chloro-1H-indol-3-yl)propyl)benzenesulfonamide], the IC50 is less than 1 µM.

With `O=S(=O)(NCCCc1c[nH]c2ccc(Cl)cc12)c1ccc(OCCCN2CCCNCC2)cc1` [Example 102, 4-(3-(1,4-diazepan-1-yl)propoxy)-N-(3-(5-chloro-1H-indol-3-yl)propyl)benzenesulfonamide], the IC50 is less than 1 µM.

With `CC1CN(CCCOc2ccc(S(=O)(=O)NCCCc3c[nH]c4ccc(Cl)cc34)cc2)CCN1` (stereo not drawn) [Example 107, N-(3-(5-chloro-1H-indole-3-yl)propyl)-4-(3-(3-methylpiperazine-1-yl)propoxy)benzenesulfonamide], the IC50 was less than 1 µM.

As to `CN1CCN(CC2(COc3ccc(S(=O)(=O)NCCCc4c[nH]c5ccc(Cl)cc45)cc3)CC2)CC1` [Example 116, N-(3-(5-chloro-1H-indole-3-yl)propyl)-4-((1-((4-methylpiperazine-1-yl)methyl)cyclopropyl)methoxy)benzenesulfonamide], the IC50 is less than 1 µM.

Regarding `O=S(=O)(NCCCc1c[nH]c2ccc(Cl)cc12)c1ccc(Oc2cccc(Br)c2)cc1` [Example 119, 4-(3-bromophenoxy)-N-(3-(5-chloro-1H-indol-3-yl)propyl)benzenesulfonamide], the IC50 was in the range of 1 to 10 µM.

For `O=S(=O)(NCCCc1c[nH]c2ccc(Cl)cc12)c1ccc(Oc2cccc(N3CCCCC3)c2)cc1` [Example 120, N-(3-(5-chloro-1H-indol-3-yl)propyl)-4-(3-(piperidin-1-yl)phenoxy)benzenesulfonamide], the IC50 is 1 to 10 µM.

The record behind these values is patent US12583818B2 (DAEGU-GYEONGBUK MEDICAL INNOVATION FOUNDATION, priority 2020, dated 2026).
